One sequence from PMC10164576, “Interaction with the carboxy-terminal tip of SSB is critical for RecG function in E. coli” (Nucleic Acids Research, 2023) can be followed below.

Where no end group is shown, it is not given here. Some results are limits rather than exact numbers.

This experiment addresses RecG R474E (Escherichia coli, UniProt P24230, R474E). Briefly: Fluorescence anisotropy binding of 6-FAM-labelled SSB-Ct peptide to RecG R474E. Further details: species or system E. coli. The conditions noted are these: 10 nM 6-FAM peptide, pH 7.6, 25°C, triplicate, read-out: FP K D. An excerpt: In vivo assembly mutagenesis ([78]) was used to introduce the R474E or R95A mutation into RecG overexpression plasmid pEAW111 to create variant overexpression plasmids pNJB3 and pEAW1324, respectively. RecG R474E or RecG R95A were expressed in STL2669/pT7pol26 and purified using the same purification scheme as wildtype RecG. The purified proteins appeared as single bands on SDS-PAGE gels and were quantified using monomer extinction coefficient ε280 nm = 5.022 × 10^4 M^−1 cm^−1. The RecG R95A preparation included a very weak nickase contaminant.
SSB peptides (sequences listed in Figure 2) were designed with an N-terminal tryptophan residue for quantification and N-terminal 6-FAM label (Genscript). […] Fluorescence polarization (FP) values were measured at 25°C using a Beacon 2000 Fluorescence Polarization System. Polarization values were normalized to the FP value measured at 0 nM RecG. […]
To more rigorously and quantitatively test the RecG HD2/SSB-Ct binding model, a RecG variant in which one of the putative SSB-binding residues is altered (RecG R474E) was purified and tested for binding to the SSB-Ct peptide and to full-length SSB in vitro. […] Binding was not detected in either titration (Figure 4C). […]
A general note: Fluorescence polarisation rises when a labelled molecule tumbles more slowly, as on binding a larger partner.

For WMDFDDDIPF [SSB-Ct peptide], the Kd is more than 30 µM.
